This passage reports IC50 results from patent publication US20230093099A1, “COMPOUNDS AND METHODS OF TREATING CANCERS” (CULLGEN (SHANGHAI), INC., priority 2019, published 2023).

One assay relates to RS4;11 cells. Kind of assay: Cell viability assay (CellTiter-Glo) in RS4;11 cells. The class given is cell-based. As to conditions: Homo sapiens, 72 h; RS4;11 ALL cells treated for three days; read-out: cell viability inhibition IC50. The procedure, abridged:
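Three-day compound treatment of RS4;11 ALL cells (5000/well, 3-fold dilution series of 8 or 12 points), with IC50 from a nonlinear least-squares fit to CellTiter-Glo viability data.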
Regarding `CS(=O)(=O)c1ccc(-c2cccc3nc(Nc4ccc(N5CCN(CC(=O)NCCCCCCCNc6ccc7c(c6)C(=O)N(C6CCC(=O)NC6=O)C7=O)CC5)cc4)nn23)cc1` (centres unmarked) [JA-214], the 50% inhibitory concentration (IC50) is below 0.1 µM.

Still in this assay, the particulars now being: Homo sapiens, 72 h; RS4;11 cells; cell viability, 3 days, CellTiter-Glo; read-out: IC50.
Consider `CS(=O)(=O)c1ccc(-c2cccc3nc(Nc4ccc(N5CCN(CC(=O)NCCOCCOCCNc6ccc7c(c6)C(=O)N(C6CCC(=O)NC6=O)C7=O)CC5)cc4)nn23)cc1` (centres unmarked) [JA-208, N-(2-(2-(2-((2-(2,6-Dioxopiperidin-3-yl)-1,3-dioxoisoindolin-5-yl)amino)ethoxy)ethoxy)ethyl)-2-(4-(4-((5-(4-(methylsulfonyl)phenyl)-[1,2,4]triazolo[1,5-a]pyridin-2-yl)amino)phenyl)piperazin-1-yl)acetamide], for which the half-maximal inhibitory concentration (IC50) stood at 3.35 µM. The same measure, in the same setting: then `CS(=O)(=O)c1ccc(-c2cccc3nc(Nc4ccc(N5CCN(CC(=O)NCCOCCOCCOCCNc6ccc7c(c6)C(=O)N(C6CCC(=O)NC6=O)C7=O)CC5)cc4)nn23)cc1` (centres unmarked) [JA-209, N-(2-(2-(2-(2-((2-(2,6-Dioxopiperidin-3-yl)-1,3-dioxoisoindolin-5-yl)amino)ethoxy)ethoxy)ethoxy)ethyl)-2-(4-(4-((5-(4-(methylsulfonyl)phenyl)-[1,2,4]triazolo[1,5-a]pyridin-2-yl)amino)phenyl)piperazin-1-yl)acetamide], with above 10 µM; and `CS(=O)(=O)c1ccc(-c2cccc3nc(Nc4ccc(N5CCN(CC(=O)NCCCNc6ccc7c(c6)C(=O)N(C6CCC(=O)NC6=O)C7=O)CC5)cc4)nn23)cc1` (centres unmarked) [JA-210, N-(3-((2-(2,6-Dioxopiperidin-3-yl)-1,3-dioxoisoindolin-5-yl)amino)propyl)-2-(4-(4-((5-(4-(methylsulfonyl)phenyl)-[1,2,4]triazolo[1,5-a]pyridin-2-yl)amino)phenyl)piperazin-1-yl)acetamide], with above 10 µM. The same measure, in the same setting: then `CS(=O)(=O)c1ccc(-c2cccc3nc(Nc4ccc(N5CCN(CC(=O)NCCOCCOCCOCCOCCOCCNc6ccc7c(c6)C(=O)N(C6CCC(=O)NC6=O)C7=O)CC5)cc4)nn23)cc1` (centres unmarked) [JA-211, N-(17-((2-(2,6-Dioxopiperidin-3-yl)-1,3-dioxoisoindolin-5-yl)amino)-3,6,9,12,15-pentaoxaheptadecyl)-2-(4-(4-((5-(4-(methylsulfonyl)phenyl)-[1,2,4]triazolo[1,5-a]pyridin-2-yl)amino)phenyl)piperazin-1-yl)acetamide], with above 10 µM.

As to `CS(=O)(=O)c1ccc(-c2cccc3nc(Nc4ccc(N5CCN(CC(=O)NCCOCCNc6ccc7c(c6)C(=O)N(C6CCC(=O)NC6=O)C7=O)CC5)cc4)nn23)cc1` (centres unmarked) [JA-212, N-(2-(2-((2-(2,6-Dioxopiperidin-3-yl)-1,3-dioxoisoindolin-5-yl)amino)ethoxy)ethyl)-2-(4-(4-((5-(4-(methylsulfonyl)phenyl)-[1,2,4]triazolo[1,5-a]pyridin-2-yl)amino)phenyl)piperazin-1-yl)acetamide], the half-inhibitory concentration (IC50) was above 10 µM. On the same count and under the same terms, then `CS(=O)(=O)c1ccc(-c2cccc3nc(Nc4ccc(N5CCN(CC(=O)NCCCCCCCNc6ccc7c(c6)C(=O)N(C6CCC(=O)NC6=O)C7=O)CC5)cc4)nn23)cc1` (centres unmarked) [JA-214], with 0.0635 µM.

On to `CS(=O)(=O)c1ccc(-c2cccc3nc(Nc4ccc(N5CCN(CC(=O)NCCCCCCNc6ccc7c(c6)C(=O)N(C6CCC(=O)NC6=O)C7=O)CC5)cc4)nn23)cc1` (centres unmarked) [JA-215, N-(6-((2-(2,6-dioxopiperidin-3-yl)-1,3-dioxoisoindolin-5-yl)amino)hexyl)-2-(4-(4-((5-(4-(methylsulfonyl)phenyl)-[1,2,4]triazolo[1,5-a]pyridin-2-yl)amino)phenyl)piperazin-1-yl)acetamide], for which the IC50 was above 10 µM. The same measure, in the same setting: the result for `CS(=O)(=O)c1ccc(-c2cccc3nc(Nc4ccc(N5CCN(C(=O)CCCNc6ccc7c(c6)C(=O)N(C6CCC(=O)NC6=O)C7=O)CC5)cc4)nn23)cc1` (centres unmarked) [JA-216, 2-(2,6-Dioxopiperidin-3-yl)-5-((4-(4-(4-((5-(4-(methylsulfonyl)phenyl)-[1,2,4]triazolo[1,5-a]pyridin-2-yl)amino)phenyl)piperazin-1-yl)-4-oxobutyl)amino)isoindoline-1,3-dione] reads 3.41 µM.

As for `Cc1cnc(Nc2ccc(N3CCN(CC(=O)NCCOCC(=O)N[C@H](C(=O)N4C[C@H](O)C[C@H]4C(=O)NCc4ccc(-c5scnc5C)cc4)C(C)(C)C)CC3)cc2)nc1Nc1cccc(S(=O)(=O)NC(C)(C)C)c1` [JA-217, (2S,4R)-1-((S)-2-(2-(2-(2-(4-(4-((4-((3-(N-(tert-butyl)sulfamoyl)phenyl)amino)-5-methylpyrimidin-2-yl)amino)phenyl)piperazin-1-yl)acetamido)ethoxy)acetamido)-3,3-dimethylbutanoyl)-4-hydroxy-N-(4-(4-methylthiazol-5-yl)benzyl)pyrrolidine-2-carboxamide], the half-maximal inhibitory concentration (IC50) is 5.6 µM. Same read-out and setting: then `Cc1cnc(Nc2ccc(N3CCN(CC(=O)NCCOCCC(=O)N[C@H](C(=O)N4C[C@H](O)C[C@H]4C(=O)NCc4ccc(-c5scnc5C)cc4)C(C)(C)C)CC3)cc2)nc1Nc1cccc(S(=O)(=O)NC(C)(C)C)c1` [JA-218, (2S,4R)-1-((S)-2-(3-(2-(2-(4-(4-((4-((3-(N-(tert-butyl)sulfamoyl)phenyl)amino)-5-methylpyrimidin-2-yl)amino)phenyl)piperazin-1-yl)acetamido)ethoxy)propanamido)-3,3-dimethylbutanoyl)-4-hydroxy-N-(4-(4-methylthiazol-5-yl)benzyl)pyrrolidine-2-carboxamide], with above 10 µM; and `Cc1cnc(Nc2ccc(N3CCN(CC(=O)NCCOCCOCCC(=O)N[C@H](C(=O)N4C[C@H](O)C[C@H]4C(=O)NCc4ccc(-c5scnc5C)cc4)C(C)(C)C)CC3)cc2)nc1Nc1cccc(S(=O)(=O)NC(C)(C)C)c1` [JA-219, (2S,4R)-1-((S)-14-(tert-butyl)-1-(4-(4-((4-((3-(N-(tert-butyl)sulfamoyl)phenyl)amino)-5-methylpyrimidin-2-yl)amino)phenyl)piperazin-1-yl)-2,12-dioxo-6,9-dioxa-3,13-diazapentadecan-15-oyl)-4-hydroxy-N-(4-(4-methylthiazol-5-yl)benzyl)pyrrolidine-2-carboxamide], with above 10 µM. On the same count and under the same terms, then `Cc1cnc(Nc2ccc(N3CCN(CC(=O)NCCOCCOCCOCC(=O)N[C@H](C(=O)N4C[C@H](O)C[C@H]4C(=O)NCc4ccc(-c5scnc5C)cc4)C(C)(C)C)CC3)cc2)nc1Nc1cccc(S(=O)(=O)NC(C)(C)C)c1` [JA-220, (2S,4R)-1-((S)-2-(tert-butyl)-17-(4-(4-((4-((3-(N-(tert-butyl)sulfamoyl)phenyl)amino)-5-methylpyrimidin-2-yl)amino)phenyl)piperazin-1-yl)-4,16-dioxo-6,9,12-trioxa-3,15-diazaheptadecanoyl)-4-hydroxy-N-(4-(4-methylthiazol-5-yl)benzyl)pyrrolidine-2-carboxamide], with above 10 µM; and `Cc1cnc(Nc2ccc(N3CCN(CC(=O)NCCOCCOCCOCCC(=O)N[C@H](C(=O)N4C[C@H](O)C[C@H]4C(=O)NCc4ccc(-c5scnc5C)cc4)C(C)(C)C)CC3)cc2)nc1Nc1cccc(S(=O)(=O)NC(C)(C)C)c1` [JA-221, (2S,4R)-1-((S)-17-(tert-butyl)-1-(4-(4-((4-((3-(N-(tert-butyl)sulfamoyl)phenyl)amino)-5-methylpyrimidin-2-yl)amino)phenyl)piperazin-1-yl)-2,15-dioxo-6,9,12-trioxa-3,16-diazaoctadecan-18-oyl)-4-hydroxy-N-(4-(4-methylthiazol-5-yl)benzyl)pyrrolidine-2-carboxamide], with above 10 µM.
